Here are results for two molecules from PMC10600007, “Structures illustrate step-by-step mitochondrial transcription initiation” (Nature, 2023).

For assay [1], the target named is T1, y-mtRNAP–Mtf1 (ΔN100 y-mtRNAP with Mtf1) (Saccharomyces cerevisiae, UniProt P13433).
T1 construct: gene RPO41; RPO41 lacking 100 N-terminal residues, His6 tag removed by TEV; Mtf1 His6-tagged (removal not described); both from E. coli; complex assembled on pre-melted promoter DNA; with Mitochondrial transcription factor 1
T1 sequence (P13433 101-1351): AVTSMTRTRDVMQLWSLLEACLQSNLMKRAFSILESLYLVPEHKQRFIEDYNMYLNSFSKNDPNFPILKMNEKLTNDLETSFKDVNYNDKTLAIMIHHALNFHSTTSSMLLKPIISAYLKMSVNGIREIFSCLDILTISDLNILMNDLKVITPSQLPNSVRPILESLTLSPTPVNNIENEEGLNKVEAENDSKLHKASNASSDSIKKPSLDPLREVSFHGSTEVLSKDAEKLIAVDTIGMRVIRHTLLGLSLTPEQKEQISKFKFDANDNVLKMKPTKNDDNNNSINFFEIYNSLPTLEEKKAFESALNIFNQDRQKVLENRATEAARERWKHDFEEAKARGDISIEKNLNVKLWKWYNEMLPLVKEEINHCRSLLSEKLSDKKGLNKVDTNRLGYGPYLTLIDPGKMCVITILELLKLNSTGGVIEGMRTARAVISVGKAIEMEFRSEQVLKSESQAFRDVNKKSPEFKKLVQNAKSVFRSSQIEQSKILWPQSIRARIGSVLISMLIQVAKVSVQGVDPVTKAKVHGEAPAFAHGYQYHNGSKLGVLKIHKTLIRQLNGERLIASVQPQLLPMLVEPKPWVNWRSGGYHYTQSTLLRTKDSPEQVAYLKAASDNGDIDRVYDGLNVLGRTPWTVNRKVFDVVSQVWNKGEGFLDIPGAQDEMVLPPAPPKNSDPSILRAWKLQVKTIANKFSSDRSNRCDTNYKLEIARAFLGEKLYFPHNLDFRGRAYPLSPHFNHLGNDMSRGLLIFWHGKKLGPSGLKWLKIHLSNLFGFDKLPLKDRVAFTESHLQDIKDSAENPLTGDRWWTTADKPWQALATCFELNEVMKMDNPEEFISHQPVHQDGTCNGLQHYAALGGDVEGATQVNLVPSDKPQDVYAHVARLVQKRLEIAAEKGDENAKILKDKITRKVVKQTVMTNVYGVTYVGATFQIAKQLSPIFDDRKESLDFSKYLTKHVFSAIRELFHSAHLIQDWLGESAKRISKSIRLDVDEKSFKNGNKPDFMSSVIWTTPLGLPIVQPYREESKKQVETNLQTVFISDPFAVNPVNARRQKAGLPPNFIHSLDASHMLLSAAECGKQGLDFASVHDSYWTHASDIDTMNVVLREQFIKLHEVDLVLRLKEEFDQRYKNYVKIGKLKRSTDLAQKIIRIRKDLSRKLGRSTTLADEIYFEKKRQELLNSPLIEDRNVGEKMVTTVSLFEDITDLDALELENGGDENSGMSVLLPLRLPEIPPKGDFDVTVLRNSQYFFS
T1 sequence (P14908 2-341 partner): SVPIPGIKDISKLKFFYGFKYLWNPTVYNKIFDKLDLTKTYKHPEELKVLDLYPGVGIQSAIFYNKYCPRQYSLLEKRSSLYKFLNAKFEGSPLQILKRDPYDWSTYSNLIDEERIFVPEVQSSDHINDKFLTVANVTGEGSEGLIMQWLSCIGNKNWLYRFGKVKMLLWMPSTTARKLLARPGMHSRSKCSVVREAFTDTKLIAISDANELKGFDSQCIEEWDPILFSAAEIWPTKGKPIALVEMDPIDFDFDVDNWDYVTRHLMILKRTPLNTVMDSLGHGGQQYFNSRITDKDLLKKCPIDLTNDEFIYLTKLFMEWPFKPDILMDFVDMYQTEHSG
As to the kind of experiment: cryo-EM structure (IC2, […] Å). It counts as binding. To be noted: pre-melted 33-bp bubble promoter DNA; Mg2+; pH 7.0; 4 °C; two GTP at +1 (P site) and +2 (N site) of polymerase active site.

Assay [2] concerns the target T2, ΔN100 y-mtRNAP (yeast mitochondrial RNA polymerase, Rpo41, 100 amino-terminal residues deleted) (S. cerevisiae, UniProt P13433 101-1351).
T2 construct: S. cerevisiae mitochondrial RNA polymerase Rpo41 (y-mtRNAP), UniProt P13433; 100 amino-terminal residues deleted; end residue S1351; Plasmid ProEXHTB; In the structures the chain is traced only from I386 (A407 in IC4) to S1351 with gaps; source: E. coli BL21 RIL Codon Plus, purified (DEAE/Ni-Sepharose, heparin, TEV cleavage, second Ni-Sepharose flow-through)
T2 sequence (looked up): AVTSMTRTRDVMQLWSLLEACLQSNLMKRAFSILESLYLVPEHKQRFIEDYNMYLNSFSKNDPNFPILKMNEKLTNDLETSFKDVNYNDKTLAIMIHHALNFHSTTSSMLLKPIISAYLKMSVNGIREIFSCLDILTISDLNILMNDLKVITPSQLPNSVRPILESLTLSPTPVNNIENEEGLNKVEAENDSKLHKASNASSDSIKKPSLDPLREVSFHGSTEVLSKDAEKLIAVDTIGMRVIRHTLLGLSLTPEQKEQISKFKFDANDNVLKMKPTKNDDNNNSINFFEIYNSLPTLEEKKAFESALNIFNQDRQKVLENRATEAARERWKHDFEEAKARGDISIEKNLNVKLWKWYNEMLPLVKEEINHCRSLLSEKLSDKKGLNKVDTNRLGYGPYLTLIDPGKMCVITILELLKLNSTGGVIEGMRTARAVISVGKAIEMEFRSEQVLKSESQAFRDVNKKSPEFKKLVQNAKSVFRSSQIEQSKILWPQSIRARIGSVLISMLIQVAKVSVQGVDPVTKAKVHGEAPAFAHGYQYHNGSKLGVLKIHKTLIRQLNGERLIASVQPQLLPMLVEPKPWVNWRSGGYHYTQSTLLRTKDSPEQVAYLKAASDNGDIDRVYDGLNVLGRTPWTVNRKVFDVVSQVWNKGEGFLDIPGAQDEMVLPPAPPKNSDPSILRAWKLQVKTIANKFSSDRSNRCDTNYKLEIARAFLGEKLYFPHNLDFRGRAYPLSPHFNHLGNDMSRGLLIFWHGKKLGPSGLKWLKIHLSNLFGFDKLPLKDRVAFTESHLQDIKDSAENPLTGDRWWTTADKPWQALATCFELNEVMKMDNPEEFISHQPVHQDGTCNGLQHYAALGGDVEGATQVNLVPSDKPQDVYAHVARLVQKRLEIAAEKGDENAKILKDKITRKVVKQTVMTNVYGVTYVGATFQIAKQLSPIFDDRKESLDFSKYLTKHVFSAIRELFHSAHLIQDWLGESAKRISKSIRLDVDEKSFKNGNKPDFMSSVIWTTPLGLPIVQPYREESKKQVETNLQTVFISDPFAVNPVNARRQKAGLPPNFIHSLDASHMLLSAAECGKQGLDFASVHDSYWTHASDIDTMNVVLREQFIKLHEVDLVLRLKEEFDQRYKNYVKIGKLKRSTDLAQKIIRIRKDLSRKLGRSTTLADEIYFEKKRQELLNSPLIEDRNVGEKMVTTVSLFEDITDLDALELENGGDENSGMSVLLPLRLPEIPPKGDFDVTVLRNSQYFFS
In words: cryo-EM structure; PmIC of ΔN100 y-mtRNAP, Mtf1 and pre-melted bubble promoter DNA (molar ratio 1:1.2:1.2, 2 h, 4 °C), purified by SEC, then incubated with NTPs or pppGpG 2 h at 4 °C to give IC2, IC4-IC8 and IC8'; 50 mM Bis-tris propane pH 7.0, 100 mM NaCl, 5 mM MgCl2, 1 mM EDTA, 2 mM DTT. To be noted: both partners purified.

`Nc1nc2c(ncn2[C@@H]2O[C@H](COP(=O)(O)OP(=O)(O)OP(=O)(O)O)[C@@H](O)[C@H]2O)c(=O)[nH]1` [GTP]: the “cryo-EM structure (IC2, 3.47 Å)” value in assay [1] is on record as “IC2 was captured with two GTP molecules bound at the transcription start site poised for catalysis”.

B1: Mtf1 (yeast mitochondrial transcription factor) (natural protein, S. cerevisiae)
chain: SVPIPGIKDISKLKFFYGFKYLWNPTVYNKIFDKLDLTKTYKHPEELKVLDLYPGVGIQSAIFYNKYCPRQYSLLEKRSSLYKFLNAKFEGSPLQILKRDPYDWSTYSNLIDEERIFVPEVQSSDHINDKFLTVANVTGEGSEGLIMQWLSCIGNKNWLYRFGKVKMLLWMPSTTARKLLARPGMHSRSKCSVVREAFTDTKLIAISDANELKGFDSQCIEEWDPILFSAAEIWPTKGKPIALVEMDPIDFDFDVDNWDYVTRHLMILKRTPLNTVMDSLGHGGQQYFNSRITDKDLLKKCPIDLTNDEFIYLTKLFMEWPFKPDILMDFVDMYQTEHSG
notes: S. cerevisiae Mtf1, mitochondrial transcription factor; wild type; traced in the structures from S2 to at most G341 (end residue); Plasmid pTrcHisC; No removal of the His6 tag is described; N-terminal domain residues 1-252, C-terminal domain residues 255-341 are named, so the whole protein is likely; source: E. coli BL21, purified (DEAE/Ni-Sepharose, heparin-Sepharose)
As for B1, the binding result in assay [2] is “binds”.
